Laboratory results published in ChEMBL document CHEMBL5465560, “Selectivity Literature for EUbOPEN Chemogenomic Library” (2024).

How the values were obtained:
[1] = molecular target: T1, Protein kinase C iota type (Homo sapiens) (UniProt P41743); assay: Selectivity interaction (KinomeScan (DiscoverX)) EUB0000595a PRKCI; details: at 10 µM
T1 sequence (whole entry): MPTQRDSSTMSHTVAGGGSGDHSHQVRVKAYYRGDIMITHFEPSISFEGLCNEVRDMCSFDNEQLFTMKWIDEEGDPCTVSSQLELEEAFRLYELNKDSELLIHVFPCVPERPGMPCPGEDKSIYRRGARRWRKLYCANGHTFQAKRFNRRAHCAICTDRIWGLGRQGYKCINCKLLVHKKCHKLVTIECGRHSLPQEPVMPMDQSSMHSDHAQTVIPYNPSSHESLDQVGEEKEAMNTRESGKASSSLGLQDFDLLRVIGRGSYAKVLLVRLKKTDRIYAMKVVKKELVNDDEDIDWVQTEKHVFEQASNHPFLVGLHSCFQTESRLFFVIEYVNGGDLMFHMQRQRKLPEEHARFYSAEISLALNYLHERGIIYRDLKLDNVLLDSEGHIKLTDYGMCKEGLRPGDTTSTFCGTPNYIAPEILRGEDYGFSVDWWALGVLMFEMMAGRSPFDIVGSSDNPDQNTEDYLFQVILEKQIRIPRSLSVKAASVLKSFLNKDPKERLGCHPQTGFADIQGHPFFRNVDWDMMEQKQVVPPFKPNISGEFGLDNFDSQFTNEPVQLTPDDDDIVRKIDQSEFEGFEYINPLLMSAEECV

[2] = molecular target: Tyrosine-protein kinase Lck (Homo sapiens, UniProt P06239); assay: Selectivity interaction (Kinase screening (Upstate/Millipore)) EUB0000604a LCK
Chain of Tyrosine-protein kinase Lck (P06239 2-509 limits assumed): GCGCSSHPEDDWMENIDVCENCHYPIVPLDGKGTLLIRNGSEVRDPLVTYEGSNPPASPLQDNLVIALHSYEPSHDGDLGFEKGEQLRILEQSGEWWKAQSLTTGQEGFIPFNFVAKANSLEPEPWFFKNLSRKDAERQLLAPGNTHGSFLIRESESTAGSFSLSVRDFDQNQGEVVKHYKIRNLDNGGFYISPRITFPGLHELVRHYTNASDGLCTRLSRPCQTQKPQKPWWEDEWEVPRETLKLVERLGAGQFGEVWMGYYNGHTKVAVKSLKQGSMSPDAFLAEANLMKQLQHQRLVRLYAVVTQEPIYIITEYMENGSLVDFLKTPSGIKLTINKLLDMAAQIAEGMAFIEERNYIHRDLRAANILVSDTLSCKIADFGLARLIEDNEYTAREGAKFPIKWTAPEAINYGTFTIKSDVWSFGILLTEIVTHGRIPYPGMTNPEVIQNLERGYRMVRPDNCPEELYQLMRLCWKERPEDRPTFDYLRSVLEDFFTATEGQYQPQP

[3] = molecular target: Tyrosine-protein kinase CSK (Homo sapiens) (UniProt P41240); assay: Selectivity interaction (KinomeScan (DiscoverX)) EUB0000618a CSK; details: at 10 µM
Chain of Tyrosine-protein kinase CSK (Homo sapiens) (P41240 2-450 limits assumed): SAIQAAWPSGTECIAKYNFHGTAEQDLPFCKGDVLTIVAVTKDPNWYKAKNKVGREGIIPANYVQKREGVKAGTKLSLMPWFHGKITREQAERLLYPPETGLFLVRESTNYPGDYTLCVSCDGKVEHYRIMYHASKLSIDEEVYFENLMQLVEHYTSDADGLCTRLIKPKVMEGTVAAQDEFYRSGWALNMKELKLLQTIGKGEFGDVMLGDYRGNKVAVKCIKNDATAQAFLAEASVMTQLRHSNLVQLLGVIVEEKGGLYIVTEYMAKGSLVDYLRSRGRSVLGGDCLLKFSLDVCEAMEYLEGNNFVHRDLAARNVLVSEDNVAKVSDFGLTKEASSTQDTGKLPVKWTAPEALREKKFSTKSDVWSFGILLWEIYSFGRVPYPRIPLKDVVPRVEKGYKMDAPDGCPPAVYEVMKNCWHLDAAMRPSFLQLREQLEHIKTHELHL

[4] = molecular target: T2, Phosphatidylinositol 4,5-bisphosphate 3-kinase catalytic subunit delta isoform (Homo sapiens) (UniProt O00329); assay: Selectivity interaction (ActivX KiNativ screen (kinase selectivity in THP-1 cell lysates)) EUB0000639a PIK3CD; type: subcellular; details: lysate, at 0.04 µM
T2 sequence (whole entry): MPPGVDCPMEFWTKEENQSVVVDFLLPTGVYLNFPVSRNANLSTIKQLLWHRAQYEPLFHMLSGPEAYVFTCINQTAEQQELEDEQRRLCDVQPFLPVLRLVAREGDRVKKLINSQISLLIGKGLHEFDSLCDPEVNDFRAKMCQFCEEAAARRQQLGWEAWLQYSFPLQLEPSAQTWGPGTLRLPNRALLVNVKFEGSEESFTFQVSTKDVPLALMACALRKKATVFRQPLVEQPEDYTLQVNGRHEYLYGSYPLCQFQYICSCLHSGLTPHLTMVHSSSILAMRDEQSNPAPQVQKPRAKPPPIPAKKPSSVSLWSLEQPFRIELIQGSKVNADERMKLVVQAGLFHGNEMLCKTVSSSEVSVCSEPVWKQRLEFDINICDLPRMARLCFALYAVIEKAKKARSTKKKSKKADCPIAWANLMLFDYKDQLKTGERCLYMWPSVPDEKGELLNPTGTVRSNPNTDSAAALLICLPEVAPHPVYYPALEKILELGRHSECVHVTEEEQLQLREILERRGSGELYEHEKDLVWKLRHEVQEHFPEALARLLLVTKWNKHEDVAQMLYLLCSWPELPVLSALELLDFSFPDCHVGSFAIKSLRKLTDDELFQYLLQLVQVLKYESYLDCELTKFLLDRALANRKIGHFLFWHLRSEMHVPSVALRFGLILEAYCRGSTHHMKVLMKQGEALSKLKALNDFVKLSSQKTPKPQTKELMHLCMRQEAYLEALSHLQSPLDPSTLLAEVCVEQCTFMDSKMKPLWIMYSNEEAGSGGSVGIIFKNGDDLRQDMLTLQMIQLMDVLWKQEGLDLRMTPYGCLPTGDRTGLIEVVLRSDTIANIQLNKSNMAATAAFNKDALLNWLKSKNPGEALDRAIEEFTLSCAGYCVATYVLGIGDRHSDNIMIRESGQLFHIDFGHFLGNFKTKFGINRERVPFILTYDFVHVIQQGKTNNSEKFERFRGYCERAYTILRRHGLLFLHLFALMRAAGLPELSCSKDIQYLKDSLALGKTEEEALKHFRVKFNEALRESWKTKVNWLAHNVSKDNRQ

[5] = molecular target: T3, Serine/threonine-protein kinase D1 (Homo sapiens) (UniProt Q15139); assay: Selectivity interaction (KinomeScan (DiscoverX)) EUB0000655a PRKD1; details: at 10 µM
T3 sequence (whole entry): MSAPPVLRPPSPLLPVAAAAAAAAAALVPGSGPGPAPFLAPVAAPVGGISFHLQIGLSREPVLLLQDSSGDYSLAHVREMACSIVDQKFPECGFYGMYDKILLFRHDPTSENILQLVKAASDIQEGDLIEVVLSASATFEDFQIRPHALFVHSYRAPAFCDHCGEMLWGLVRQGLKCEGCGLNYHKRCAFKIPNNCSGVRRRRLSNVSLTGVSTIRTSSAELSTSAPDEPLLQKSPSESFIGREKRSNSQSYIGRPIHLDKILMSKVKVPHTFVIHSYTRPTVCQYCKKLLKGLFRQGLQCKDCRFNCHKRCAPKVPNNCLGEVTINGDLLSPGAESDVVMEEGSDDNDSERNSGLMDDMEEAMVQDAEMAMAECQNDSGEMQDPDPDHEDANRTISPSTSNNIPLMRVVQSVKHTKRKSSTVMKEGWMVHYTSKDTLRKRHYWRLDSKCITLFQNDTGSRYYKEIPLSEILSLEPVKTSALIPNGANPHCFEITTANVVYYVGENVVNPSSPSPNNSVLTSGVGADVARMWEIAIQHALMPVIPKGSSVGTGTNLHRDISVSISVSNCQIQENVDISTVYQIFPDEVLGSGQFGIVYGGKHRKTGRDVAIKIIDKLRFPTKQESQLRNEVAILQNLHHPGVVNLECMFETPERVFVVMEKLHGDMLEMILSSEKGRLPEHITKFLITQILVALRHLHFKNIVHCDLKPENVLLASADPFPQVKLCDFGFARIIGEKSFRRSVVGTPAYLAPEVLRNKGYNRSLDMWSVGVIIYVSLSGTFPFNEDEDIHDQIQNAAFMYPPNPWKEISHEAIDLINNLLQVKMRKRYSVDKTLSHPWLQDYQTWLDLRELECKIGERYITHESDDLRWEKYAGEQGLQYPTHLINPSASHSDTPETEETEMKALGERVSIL

Structure (SMILES): COCC(=O)NC/C=C/c1ccc2ncnc(Nc3ccc(Oc4ccc(C)nc4)c(C)c3)c2c1 [CP-724714]
- % of control [1]: 93%

Structure (SMILES): Cc1cnc(Nc2ccc(F)cc2Cl)nc1-c1c[nH]c(C(=O)N[C@H](CO)c2cccc(Cl)c2)c1
- % of inhibition [2]: 3%

Structure (SMILES): O[C@H]1CC[C@H](Nc2ncc3nc(Nc4c(F)cc(F)cc4F)n([C@H]4CCOC4)c3n2)CC1
- % of control [3]: 98%

Structure (SMILES): CC[C@@H]1[C@H](F)C(=O)N[C@@H]1COc1nccc2cc(C(N)=O)c(OC)cc12 [ZIMLOVISERTIB]
- % of inhibition [4]: 3.5%

Structure (SMILES): CN(C)CCOc1ccc(-c2nc(-c3ccncc3)c(-c3ccc4c(c3)CC/C4=N\O)[nH]2)cc1
- % of control [5]: 3.8%
